Reference: article PMC12040169 (PLOS Biology, 2025)

Assay: in vitro
Settings: human, hela cells, % viability

| SMILES | viability at 28.5 h, 10 µM [%] |
| --- | --- |
| Cc1cc(C)nc(NC(=O)NS(=O)(=O)Nc2ccccc2Cl)n1 [CBK260912] | 102 |
| NCCC(O)(P(=O)(O)O)P(=O)(O)O [CBK260913] | 97.6 |
| O=P(O)(CN1CCOCC1)CN1CCOCC1 [CBK260914] | 97.6 |
| Cc1cccc(C)c1NC(=O)c1nccnc1C(=O)O [CBK260915] | 97 |
| O=C(NCc1c(OC(=O)c2cccc([N+](=O)[O-])c2)ccc2ccccc12)c1ccccc1 [CBK260919] | 81.1 |
| O=C(NCc1c(O)c(Cl)cc(Cl)c1Cl)c1ccccc1 [CBK260920] | 94.2 |
| NC(=O)N/N=C/c1ccncc1 [CBK260922] | 107 |
| O=C(O)/C=N/NC(=O)c1ccco1 [CBK260923] | 89.5 |
| Cc1ccc(CCC(=O)NNc2ccccc2)o1 [CBK260924] | 90.5 |
| CO/N=C(/C(=O)O)c1cn2cc(Br)ccc2n1 [CBK260925G] | 87.2 |
| C[N+](C)(C)c1ccc(C(=O)O)cc1 [CBK260929B] | 90 |
| CCC1=NN(c2ccccc2)C(=O)C(CC(=O)Nc2ccccc2)c2cc(OC)c(OC)cc21 (centres unmarked) [CBK260938] | 89 |
| O=C(O)C1Cc2c([nH]c3ccccc23)C(c2cc(Br)ccc2O)N1 (centres unmarked) [CBK260946] | 88.1 |
| Cc1sc2ccc(-c3ccccc3)cc2[n+]1CCCS(=O)(=O)[O-] [CBK260947] | 90.7 |
| CCO/C(C)=C/c1sc2ccc3ccccc3c2[n+]1CCCS(=O)(=O)[O-] [CBK260948] | 95.1 |
| Cc1nc2cc(C(=O)O)ccc2n1CCO [CBK260949] | 106 |
| Cc1c[n+]2ccsc2n1Cc1ccccc1C#N [CBK260951B] | 116 |
| O=C1/C(=C2/Sc3ccccc3N2CCCS(=O)(=O)O)SC(=S)N1c1ccccc1 [CBK260954G] | 94.5 |
| O=C(O)CCC(CCC(=O)O)([N+](=O)[O-])[N+](=O)[O-] [CBK260956] | 93.9 |
| O=C(CNC(=O)c1ccccc1)N/N=C/c1ccc(Br)cc1 [CBK260957] | 103 |
| CC(C)(c1ccc(Oc2cccc(N)c2)cc1)c1ccc(Oc2cccc(N)c2)cc1 [CBK260958] | 109 |
| O=C(O)c1ccc(Oc2ccc([N+](=O)[O-])cc2)cc1C(=O)O [CBK260961] | 89 |
| O=C1c2ccccc2C(=O)N1CCCN1CCN(CCCN2C(=O)c3ccccc3C2=O)CC1 [CBK260963] | 91.6 |

| SMILES | viability at 28.5 h, 10 µM [%] |
| --- | --- |
| Cc1ccc(S(=O)(=O)NC(CO)C(=O)O)cc1 (centres unmarked) [CBK260965] | 96 |
| Cc1ccc(S(=O)(=O)NC(Cc2c[nH]c3ccccc23)C(=O)O)cc1 (centres unmarked) [CBK260966] | 103 |
| CN(C)Cc1cc(CN(C)C)c(O)c(C(C)(C)C)n1 [CBK260969] | 90.6 |
| COc1ccc(C(=O)Nc2cccc3nsnc23)cc1OC [CBK260973] | 92.2 |
| O=C(O)c1c[nH]cn1 [CBK260978G] | 97 |
| CCOC(=O)/C(=N/O)C(=O)c1c[nH]c2ccccc12 [CBK260979] | 96 |
| Cc1nonc1NC(=O)Nc1ccncc1 [CBK260982] | 94.7 |
| CC(=O)Nc1ccc(NC(=O)CCCC(=O)O)cc1 [CBK260984] | 104 |
| N=C(N)SCP(=O)(c1ccccc1)c1ccccc1 [CBK260990] | 99.3 |
| O=C(O)CCC(CCC(=O)O)C(=O)O [CBK260994] | 95.1 |
| C[Si]1(C)O[Si](C)(C)O[Si](C)(CC[Si](C)(C)c2ccccc2)O[Si](C)(C)O1 [CBK260998] | 97 |
| c1cncc(C(N2CCOCC2)N2CCOCC2)c1 [CBK260999] | 94.5 |
| COc1ccc(C(N2CCOCC2)N2CCOCC2)cc1 [CBK261002] | 102 |
| CNC(=O)N(O)C1N(NC(=O)Nc2ccccc2)C(=S)SC1(C)C (centres unmarked) [CBK261005] | 94.9 |
| O=[N+]([O-])c1ccc(NCCNCCO)c(Cl)c1 [CBK261006] | 97.5 |
| CNc1c(C)cc([N+](C)(C)C)cc1C [CBK261007I] | 95.3 |
| O=C(O)C1CC1(C(=O)O)C(=O)O (centres unmarked) [CBK261009] | 103 |
| Cc1cc([N+](=O)[O-])cc[n+]1[O-] [CBK261014] | 102 |
| c1ccc(Nc2[nH]nnc2-c2ccccc2)cc1 [CBK261015] | 116 |
| CC(=O)Nc1cc2nc3ccccc3nc2cc1NC(C)=O [CBK261018] | 92.6 |
| O=C(NC(N1CCCCC1)C(Cl)(Cl)Cl)NC(N1CCCCC1)C(Cl)(Cl)Cl (centres unmarked) [CBK261020] | 98.2 |
| O=S(=O)(CCSc1ccc(Cl)cc1)Oc1ccccc1 [CBK261021] | 102 |
| CC(C)(C)C(=O)NC(N(Cc1ccccc1)Cc1ccccc1)C(Cl)(Cl)Cl (centres unmarked) [CBK261023] | 97.7 |

| SMILES | viability at 28.5 h, 10 µM [%] |
| --- | --- |
| CCCC(=O)NC(NC(=S)Nc1ccccc1Cl)C(Cl)(Cl)Cl (centres unmarked) [CBK261026] | 106 |
| COc1ccc(C(=O)NC(NC(=S)Nc2cccc3cccnc23)C(Cl)(Cl)Cl)cc1 (centres unmarked) [CBK261028] | 94.6 |
| CC(=O)Cc1ccccc1OCC(=O)O [CBK261031] | 90.9 |
| NC(=O)COc1ccccc1OCC(N)=O [CBK261032] | 87.5 |
| CC(C)(C)c1cc(C(=O)CSc2nnc(Nc3ccccc3)n2-c2ccccc2)cc(C(C)(C)C)c1O [CBK261033] | 94.1 |
| c1ccc2sc(CCSCCc3nc4ccccc4s3)nc2c1 [CBK261036] | 104 |
| CN=C(S)N=C(Nc1ccccc1)c1ccccc1 [CBK261037] | 89.1 |
| FC(F)(F)C1=NC(C(F)(F)F)=NP(N2CCOCC2)(N2CCOCC2)=N1 [CBK261042] | 94.3 |
| COc1ccccc1NC(=O)C(C)N1C(=O)c2ccccc2C1=O (centres unmarked) [CBK261043] | 92 |
| Cc1ccc(C(=O)NNC(=O)c2cccnc2)cc1 [CBK261045] | 94 |
| Cc1ccccc1C(=O)NC(NC(=S)Nc1sc2c(c1C(N)=O)CCCC2)C(Cl)(Cl)Cl (centres unmarked) [CBK261047] | 97.9 |
| NC(=O)c1c(NC(=S)NC(NC(=O)c2ccccc2)C(Cl)(Cl)Cl)sc2c1CCCC2 (centres unmarked) [CBK261048] | 90.6 |
| CC(C)CC(=O)NC(N=C(S)Nc1sc2c(c1C#N)CCCC2)C(Cl)(Cl)Cl (centres unmarked) [CBK261049] | 85.2 |
| CC(C)C(=O)NC(NC(=S)Nc1cccc2cccnc12)C(Cl)(Cl)Cl (centres unmarked) [CBK261051] | 90 |
| CC(=O)NC(NC(=S)Nc1sc2c(c1C#N)CCCC2)C(Cl)(Cl)Cl (centres unmarked) [CBK261053] | 99.2 |
| CC(=O)NC(NC(=S)Nc1sc2c(c1C(N)=O)CCCC2)C(Cl)(Cl)Cl (centres unmarked) [CBK261054] | 101 |
| NC(=O)c1c(NC(=S)NC(NC(=O)c2ccco2)C(Cl)(Cl)Cl)sc2c1CCCC2 (centres unmarked) [CBK261055] | 103 |
| CN(C)C1=NC(N(C)C)=NP(N(C)C)(N(C)C)=N1 [CBK261057] | 91.8 |
| Cc1[nH]c(=O)[nH]c(=O)c1S(=O)(=O)N1CCOCC1 [CBK261060] | 96.1 |
| CC(=O)OC(C(=O)O)C(OC(C)=O)C(=O)O (centres unmarked) [CBK261063] | 95.5 |
| C(=N\Nc1ccc2nn(-c3ccccc3)nc2c1)/c1c[nH]c2ccccc12 [CBK261064] | 91.6 |
| NS(=O)(=O)c1ccc(NC(=S)NC(=O)/C=C/c2ccco2)cc1 [CBK261066] | 93 |
| NCCCCCCNC(=O)c1c(O)c2ccccc2oc1=O [CBK261071] | 97.9 |

| SMILES | viability at 28.5 h, 10 µM [%] |
| --- | --- |
| Cc1ccc(CCSCC(=O)O)cn1 [CBK261072] | 95.3 |
| O=C(c1ccc(O)cc1)c1ccc(C(=O)O)c(C(=O)O)c1 [CBK261075] | 105 |
| C[N+](C)(C)CCCCOC(c1ccccc1)c1ccccc1 [CBK261076I] | 94.1 |
| CCC(/C=C1\Oc2ccc(OC)cc2N1C)=C\c1sc2ccccc2[n+]1CCCS(=O)(=O)[O-] [CBK261080] | 90.3 |
| O=S(=O)([O-])CCC[n+]1c(/C=C/Nc2ccccc2)oc2ccc3ccccc3c21 [CBK261082] | 114 |
| O=C(O)CS(=O)(=O)c1ccccc1C(=O)O [CBK261083] | 98.9 |
| O=C(NC(N1CCOCC1)C(Cl)(Cl)Cl)c1ccc(Cl)cc1 (centres unmarked) [CBK261084] | 94.2 |
| O=[N+]([O-])c1ccc(C(O)CNC(=S)Nc2ccccc2)cc1 (centres unmarked) [CBK261086] | 99.8 |
| NC(CCCCNC(=O)c1ccccc1)C(=O)O (centres unmarked) [CBK261087] | 97 |
| O=C(O)c1cccc(/N=C/c2ccc(/C=N/c3cccc(C(=O)O)c3)cc2)c1 [CBK261088] | 92.3 |
| O=C(CCCN1C(=O)c2cccc3cccc(c23)C1=O)NO [CBK261092] | 92 |
| O=[N+]([O-])c1ccc(O)c(/C=N/c2ccc(Oc3ccc(/N=C/c4cc([N+](=O)[O-])ccc4O)cc3)cc2)c1 [CBK261093] | 96.7 |
| O=C(Cc1cccc2ccccc12)NC(NC(=S)Nc1ccccc1Br)C(Cl)(Cl)Cl (centres unmarked) [CBK261094] | 106 |
| O=C(O)c1ccccc1-n1c(=O)c2cc3c(=O)n(-c4ccccc4C(=O)O)c(=O)c3cc2c1=O [CBK261097] | 87.5 |
| CC(C)(C)c1cc(CNCCS(=O)(=O)O)c(O)c(C(C)(C)C)c1 [CBK261098] | 107 |
| CC(=O)Oc1cccc(N2C(=O)c3ccc(Oc4cccc(N)c4)cc3C2=O)c1 [CBK261099] | 96.4 |
| O=C(O)c1cc(C(=O)O)c(-c2ccccc2)c(C(=O)O)c1 [CBK261101] | 93.7 |
| Cc1cccc(N(CC(=O)O)CC(=O)O)c1 [CBK261103] | 93.2 |
| O=S(=O)(Oc1ccc(-c2cnc3ccccc3n2)cc1)c1ccccc1 [CBK261104] | 93.4 |
| CC(=O)NC(Cc1c[nH]cn1)C(=O)O (centres unmarked) [CBK261105] | 101 |
| Oc1ccccc1/C=N/CC(O)C/N=C/c1ccccc1O [CBK261112] | 103 |
| CCN(CC(O)COc1ccc2ccccc2c1)S(=O)(=O)O (centres unmarked) [CBK261113K] | 87.2 |
| c1ccc2c(c1)nnn2CNCn1nnc2ccccc21 [CBK261114] | 85.4 |
